Assay results as given in article PMC9500038, “A fungal tolerance trait and selective inhibitors proffer HMG-CoA reductase as a herbicide mode-of-action” (Nature Communications, 2022).
pIC50: −log10 of the molar value. “Also recorded” adds a separate entry of the source.

Assays:
AtHMG1-L558T = target: T1, AtHMG1-L558T (Arabidopsis thaliana, UniProt P14891, L558T); assay: biochemical; format: biochemical; conditions: for AtHMG1-L558T activity in the presence of statin: 500 nM, in comparison to wild-type
T1 construct: AtHMG1 (Uniprot P14891, At1g76490, residues 121–592); His6 (N); TEV cleavage site (N); made in house; host or cells: E. coli T7 SHuffle Express
Experimental: (§1) AtHMG1 described above and human HMGR (HsHMGCR, Uniprot P04035, residues 441–888, cloned as above) were purified as above, and activity was determined by spectrophotometric measurement of the decrease in absorbance at 340 nm that occurs with NADPH oxidation in the presence of substrate HMG-CoA (Sigma-Aldrich). Reactions were performed with an assay buffer consisting of 150 mM sodium chloride, 5 mM dithiothreitol, 50 mM HEPES pH 7.4 and 2% DMSO. For kinetics determinations, a final concentration of 150 nM enzyme was incubated at 37 °C in 300 μM NADPH and different concentrations of HMG-CoA. Non-linear regression analysis was performed with GraphPad Prism 9 by plotting the initial reaction rates, v0, interpolated from a standard curve against the substrate concentration. The Michaelis–Menten constant, Km, was determined by fitting the data with a Michaelis–Menten equation and values for kcat were calculated by dividing Vmax by the molar enzyme concentration. To calculate relative specific activity, 500 nM of test compounds were pre-incubated at 37 °C with enzyme and 300 μM NADPH for 15 min before adding HMG-CoA to 200 μM. Resultant values were background subtracted and normalised to the average of the no-inhibitor control. For IC50 determinations, the same protocol was used, but varying inhibitor concentrations. Rosuvastatin data were plotted with a four-parameter (WT), and normalised response (L558T) non-linear regression model and atorvastatin and analogues were plotted with a normalised response with variable slope non-linear regression model.

AtHMG1 = target: T2, AtHMG1 (Arabidopsis thaliana, UniProt P14891); assay: biochemical; format: biochemical; conditions: for selectivity for AtHMG1 in vitro (dose-response): inhibition profiles AtHMG1 versus HsHMGCR; for pIC50: wild-type AtHMG1, in vitro
T2 construct: AtHMG1 (Uniprot P14891, At1g76490, residues 121–592); His6 (N); TEV cleavage site (N); made in house; host or cells: E. coli T7 SHuffle Express
Experimental: An E. coli codon-optimised DNA sequence encoding the conserved […] region of AtHMG1 (Uniprot P14891, At1g76490, residues 121–592) was cloned into pQE30 (Qiagen) following an N-terminal His6-tag and tobacco etch virus cleavage site. The protein was expressed in the T7 SHuffle Express strain of E. coli (New England Biolabs) transformed with pREP4 (Qiagen) with the proteins expressed and purified as previously described. Briefly, cultures were grown in lysogeny broth containing 100 μg/mL ampicillin and 35 μg/mL kanamycin at 30 °C to an OD600 of 0.8–1.0. Cells were cooled to 16 °C before the expression was induced with 0.1 mM isopropyl β-D-1-thiogalactopyranoside. Following overnight culture, cells were harvested by centrifugation and lysed by ultrasonication in 100 mM HEPES (pH 7.5), 150 mM sodium chloride, 5 mM dithiothreitol, 0.1% Triton X-100. Lysed cells were then centrifuged (15,000×g) and the supernatant was incubated in 30 mL batches with Ni-NTA resin overnight at 4 °C. The resin was then washed with 50 mL of 100 mM HEPES (pH 7.5), 150 mM sodium chloride, 5 mM dithiothreitol followed by 50 mL of 100 mM HEPES (pH 7.5), 150 mM sodium chloride, 5 mM dithiothreitol, 20 mM imidazole. The protein was then eluted with 50 mL of 100 mM HEPES (pH 7.5), 150 mM sodium chloride, 5 mM dithiothreitol, 300 mM imidazole. Eluted protein was concentrated with a 30 kDa centrifugal filter unit (Millipore) and purified by size-exclusion chromatography (HiLoad 16/600 Superdex 200) in 100 mM HEPES (pH 7.5), 150 mM sodium chloride, 5 mM dithiothreitol. The protein was assessed for purity by SDS-PAGE, and protein concentration was determined by spectrophotometry.
as §1

HsHMGCR = target: T3, HsHMGCR (Homo sapiens, UniProt P04035); assay: In vitro HMGR assay (NADPH depletion), HsHMGCR; format: biochemical
T3 construct: HsHMGCR, Uniprot P04035, residues 441–888; His6 (N); TEV cleavage site (N); made in house; host or cells: E. coli T7 SHuffle Express (by 'cloned as above ... purified as above')
T3 sequence (P04035 441-888): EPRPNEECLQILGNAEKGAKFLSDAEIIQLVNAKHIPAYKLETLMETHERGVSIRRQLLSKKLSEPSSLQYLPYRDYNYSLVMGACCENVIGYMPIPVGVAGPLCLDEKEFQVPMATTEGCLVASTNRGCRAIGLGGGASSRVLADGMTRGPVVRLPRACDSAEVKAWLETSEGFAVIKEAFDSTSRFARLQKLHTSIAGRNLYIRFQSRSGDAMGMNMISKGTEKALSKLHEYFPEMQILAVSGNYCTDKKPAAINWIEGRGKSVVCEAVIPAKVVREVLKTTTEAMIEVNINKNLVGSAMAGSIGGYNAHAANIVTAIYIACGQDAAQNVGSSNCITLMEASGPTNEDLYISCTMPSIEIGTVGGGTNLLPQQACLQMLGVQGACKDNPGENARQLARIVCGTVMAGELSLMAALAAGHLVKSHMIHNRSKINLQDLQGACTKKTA
Experimental: as §1, with “Rosuvastatin data were plotted with a four-parameter (WT), and normalised response (L558T) non-linear regression model and atorvastatin and analogues were plotted with a normalised response with variable slope non-linear regression model.” left out

A. thaliana = assay: Herbicidal activity assay on soil, pre- and post-emergence; format: in vivo, Arabidopsis thaliana; conditions: for herbicidal activity: pre- and post-emergence
Experimental: Approximately 30 seeds of A. thaliana (accession Col-0) or E. tef were sown in 63 × 63 × 59 mm pots of Irish peat (Bord na Móna Horticulture Ltd, Newbridge, Ireland). Seeds were incubated in the dark for 3 days at 4 °C to synchronise germination. A single pre-emergence treatment (day 0) was performed when these seeds were transferred to a growth room at 22 °C with a 16:8 h light:dark photoperiod and 60% relative humidity. Two post-emergence treatments were performed following emergence of the seedlings (day 1) at days 4 and 7. Plants were watered accordingly throughout the experiment to maintain adequate moisture and photographed on day 16. Treatments were conducted with rosuvastatin, simvastatin, fluvastatin, atorvastatin (AK Scientific), pravastatin (BOC Sciences), lovastatin (Sapphire Bioscience), mevastatin, pitavastatin (Focus Bioscience), glyphosate, RoundUp® and atorvastatin analogues (1–9). To treat, 0.5 mL of each compound in a final concentration of 2% dimethyl sulfoxide (DMSO) and 0.02% Brushwet (SST Dandenong, Australia) was pipetted onto seedlings. Full experimental details and characterisation of atorvastatin analogue 1–9 synthesis can be found in Supplementary Method 1 and Supplementary Figs. 7–62. Growth inhibition was quantified by detecting green pixels for healthy seedlings using ImageJ (National Institutes of Health, 1.53 v) and the ‘Threshold Colour’ plug-in with the following settings: hue 50–110, saturation 125–255, brightness 30–255[67]. Images were converted into 8-bit format, and pixels measured over the same area. Data were normalised to a negative control to provide percentage inhibition.

[1] = tested on: wild-type (WT) A. thaliana; assay: In planta statin resistance assay, non-transformed WT; format: in vivo; conditions: Arabidopsis thaliana; growth medium, green pixels; read-out: IC50 growth inhibition, non-transformed WT
Experimental: (§2) DNA encoding the full-length AtHMG1 protein (Uniprot P14891, residues 1–592) and the corresponding L558T mutant were cloned into a derivative of the pMDC43 binary vector[75] to yield 35 S::AtHMG1 and 35 S::AtHMG1-L558T transgenes, respectively. These constructs were then introduced into Agrobacterium tumefaciens strain LBA4404 and separately used to transform A. thaliana by the floral dip method[76],[77]. Seeds (T0/1) of transformed plants were collected and surface sterilised using 600 µL 70% ethanol, 750 µL 100% ethanol and soaked in 800 µL 50% bleach for 8 min, before washing with 800 µL sterile water and resuspension with 0.1% agar. Selection was performed on 30 µg/mL hygromycin growth medium (1% agar, 1% glucose, 0.45% Murashige & Skoog salts with vitamins, 0.3% 2-(N-morpholino)-ethanesulfonic acid (MES) (v/v), pH 5.7) in a growth room at 22 °C with 16:8 h light:dark photoperiod and 60% relative humidity. Surviving plants were transferred to 63 ×63 × 59 mm pots of Irish peat and grown to maturity in the same growth conditions. Seeds from plants with an adequate seed yield were then sterilised and selected again as described above with 30 µg/mL hygromycin growth medium. […] Plates were sealed with porous tape and grown for a minimum of 10 days with the growth conditions described above. Plates were then imaged, and growth quantified using ImageJ as described above. […]

[2] = tested on: 35 S::AtHMG1-L558T A. thaliana lines; format: in vivo, Arabidopsis thaliana
Experimental: DNA encoding the full-length AtHMG1 protein (Uniprot P14891, residues 1–592) and the corresponding L558T mutant were cloned into a derivative of the pMDC43 binary vector[75] to yield 35 S::AtHMG1 and 35 S::AtHMG1-L558T transgenes, respectively. These constructs were then introduced into Agrobacterium tumefaciens strain LBA4404 and separately used to transform A. thaliana by the floral dip method[76],[77]. Seeds (T0/1) of transformed plants were collected and surface sterilised using 600 µL 70% ethanol, 750 µL 100% ethanol and soaked in 800 µL 50% bleach for 8 min, before washing with 800 µL sterile water and resuspension with 0.1% agar. Selection was performed on 30 µg/mL hygromycin growth medium (1% agar, 1% glucose, 0.45% Murashige & Skoog salts with vitamins, 0.3% 2-(N-morpholino)-ethanesulfonic acid (MES) (v/v), pH 5.7) in a growth room at 22 °C with 16:8 h light:dark photoperiod and 60% relative humidity. Surviving plants were transferred to 63 ×63 × 59 mm pots of Irish peat and grown to maturity in the same growth conditions. Seeds from plants with an adequate seed yield were then sterilised and selected again as described above with 30 µg/mL hygromycin growth medium. […] Plates were sealed with porous tape and grown for a minimum of 10 days with the growth conditions described above. Plates were then imaged, and growth quantified using ImageJ as described above. Total green pixels were normalised against negative controls for the respective lines (2% DMSO and water) to provide percentage inhibition. […] Growth inhibition at varying concentrations of hygromycin and rosuvastatin were plotted with a four-parameter non-linear regression model using GraphPad Prism 9.

[3] = tested on: 35 S::AtHMG1 A. thaliana lines; assay: In planta statin resistance assay, 35 S::AtHMG1 lines; format: in vivo; conditions: Arabidopsis thaliana; 19 T2 lines combined; read-out: IC50 growth inhibition, 35 S::AtHMG1 lines
Experimental: as §2

T1 sequence (P14891 121-592 L558T): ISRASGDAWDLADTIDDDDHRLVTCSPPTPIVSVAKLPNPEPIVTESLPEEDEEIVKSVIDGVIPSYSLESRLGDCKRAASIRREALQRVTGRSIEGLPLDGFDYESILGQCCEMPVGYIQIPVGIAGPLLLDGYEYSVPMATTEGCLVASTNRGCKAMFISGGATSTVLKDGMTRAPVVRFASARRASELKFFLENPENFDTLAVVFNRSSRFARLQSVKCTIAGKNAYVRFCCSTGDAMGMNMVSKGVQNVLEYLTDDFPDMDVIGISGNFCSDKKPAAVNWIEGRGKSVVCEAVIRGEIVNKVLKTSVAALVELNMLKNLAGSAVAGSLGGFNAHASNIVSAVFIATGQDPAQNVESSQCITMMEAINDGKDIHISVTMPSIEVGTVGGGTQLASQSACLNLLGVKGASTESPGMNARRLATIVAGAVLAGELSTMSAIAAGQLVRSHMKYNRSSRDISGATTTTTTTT
T2 sequence (P14891 121-592): as the sequence (P14891 121-592 L558T) above, with T438L counted along it

CC(C)c1c(C(=O)Nc2ccccc2)c(-c2ccccc2)c(-c2ccc(F)cc2)n1CC[C@@H](O)C[C@@H](O)CC(=O)O [atorvastatin]
AtHMG1-L558T activity in the presence of statin (AtHMG1-L558T): retained activity | selectivity for AtHMG1 in vitro (dose-response) (AtHMG1): not selective

O=C(O)C[C@H](O)C[C@H](O)CCn1c(-c2ccc(F)cc2)c(-c2ccccc2)c(C(=O)Nc2ccccc2)c1C1CCC1 [compound 7]
pIC50 (HsHMGCR): 6.05 | herbicidal activity (A. thaliana): retained herbicidal activity | specificity for AtHMG1 over HsHMGCR (AtHMG1; in vitro, from IC50 dose-response curves): > 20 fold | selectivity in vitro for AtHMG1 over HsHMGCR (AtHMG1; initial screen at 500 nM): selective; also recorded: preference for AtHMG1 over HsHMGCR | pIC50 (AtHMG1): 7.49

O=C(O)C[C@H](O)C[C@H](O)CCn1c(-c2ccc(F)cc2)c(-c2ccccc2)c(C(=O)Nc2ccccc2)c1C1CCCC1 [compound 8]
selectivity for AtHMG1 in vitro (dose-response) (AtHMG1): not selective

CC(C)n1c(/C=C/C(O)CC(O)CC(=O)O)c(-c2ccc(F)cc2)c2ccccc21 (stereo not shown) [fluvastatin]
AtHMG1-L558T activity in the presence of statin (AtHMG1-L558T): retained activity

CC[C@H](C)C(=O)O[C@H]1C[C@@H](C)C=C2C=C[C@H](C)[C@H](CC[C@@H]3C[C@@H](O)CC(=O)O3)[C@H]21 [lovastatin]
AtHMG1-L558T activity in the presence of statin (AtHMG1-L558T): retained activity

CC[C@H](C)C(=O)O[C@H]1CCC=C2C=C[C@H](C)[C@H](CC[C@@H]3C[C@@H](O)CC(=O)O3)[C@H]21 [mevastatin]
AtHMG1-L558T activity in the presence of statin (AtHMG1-L558T): retained activity

O=C(O)C[C@H](O)C[C@H](O)/C=C/c1c(C2CC2)nc2ccccc2c1-c1ccc(F)cc1 [pitavastatin]
AtHMG1-L558T activity in the presence of statin (AtHMG1-L558T): retained activity

CC[C@H](C)C(=O)O[C@H]1C[C@H](O)C=C2C=C[C@H](C)[C@H](CC[C@@H](O)C[C@@H](O)CC(=O)O)[C@H]21 [pravastatin]
AtHMG1-L558T activity in the presence of statin (AtHMG1-L558T): retained activity

CC(C)c1nc(N(C)S(C)(=O)=O)nc(-c2ccc(F)cc2)c1/C=C/[C@@H](O)C[C@@H](O)CC(=O)O [rosuvastatin]
pIC50 [1]: 5.52 | 35 S::AtHMG1-L558T lines less sensitive to treatment than 35 S::AtHMG1 lines ([2]; 80 µM versus 5 µM, compared to untreated WT): up to 16 fold | resistance of 35 S::AtHMG1-L558T lines versus 35 S::AtHMG1 lines ([2]; in planta): over sixfold more resistant | resistance of 35 S::AtHMG1-L558T lines versus non-transformed WT ([2]; in planta): more than 100 fold | pIC50 (AtHMG1-L558T): < 6.00 | AtHMG1-L558T activity in the presence of statin (AtHMG1-L558T): retained activity | resistance of AtHMG1-L558T versus WT in vitro (AtHMG1-L558T; in vitro): > 20 fold | herbicidal activity (A. thaliana): most herbicidal statin | concentration lethal to A. thaliana (A. thaliana; rosuvastatin without formulation beyond a wetting agent, Roundup formulated, same conditions): ~ 15 μM | pIC50 [3]: 4.34 | pIC50 (AtHMG1): 7.28

CCC(C)(C)C(=O)O[C@H]1C[C@@H](C)C=C2C=C[C@H](C)[C@H](CC[C@@H]3C[C@@H](O)CC(=O)O3)[C@H]21 [simvastatin]
AtHMG1-L558T activity in the presence of statin (AtHMG1-L558T): retained activity
